For the test, the system named is HIV-1 single-round infectious reporter virus. The experiment in a line: Single-round infectious HIV-1 luciferase reporter virus infection of HeLa CD4 cells (antiviral EC50). Format: cell-based. The following applies: Human immunodeficiency virus 1, HeLa, read-out: EC50 Group from Table 3. In outline: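 Env-pseudotyped single-round HIV-1 reporter virus (env-deleted provirus with luciferase in place of nef, made in 293 cells) infected HeLa CD4 cells at MOI ~0.01 with compound present, up to 10 μM final. Luciferase luminescence read after 72 h at 37 °C; EC50 from four-parameter logistic fit of % inhibition over 10 concentrations.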
On the technique in general: In a reporter assay the amount or activity of a reporter protein is the signal.

The structures appear in SMILES notation.

The EC50 is the midpoint of the concentration-response curve.

Consider `C[C@@H]1CN(c2ncccc2N2CC(C)(C)C2=O)CCN1C(=O)C(=O)c1c[nH]c2c(-n3ccnn3)ncc(F)c12` [D-28], for which the EC50 is more than 500 nM. The same measure for `C[C@@H]1CN(c2ncccc2C(=O)N2CCOCC2)CCN1C(=O)C(=O)c1c[nH]c2c(-n3ccnn3)ncc(F)c12` [D-29]: more than 500 nM; for `C[C@@H]1CN(c2snnc2-c2ccccc2)CCN1C(=O)C(=O)c1c[nH]c2c(-n3ccnn3)ncc(F)c12` [D-30]: less than 500 nM; for `O=C(C(=O)N1CCN(c2ncccc2-c2nc3ccccc3s2)CC1)c1c[nH]c2c(-n3ccnn3)ncc(F)c12` [D-31]: more than 500 nM. As for `O=C(c1ccccn1)c1cccnc1N1CCN(C(=O)C(=O)c2c[nH]c3c(-n4ccnn4)ncc(F)c23)CC1` [D-32], the EC50 was less than 500 nM. The same measure for `O=C(c1nccs1)c1cccnc1N1CCN(C(=O)C(=O)c2c[nH]c3c(-n4ccnn4)ncc(F)c23)CC1` [D-33]: less than 500 nM. Then `O=C(NC1CCCCC1)c1cccnc1N1CCN(C(=O)C(=O)c2c[nH]c3c(-n4ccnn4)ncc(F)c23)CC1` [D-34], with less than 500 nM; and `CC(C)Oc1nccnc1N1CCN(C(=O)C(=O)c2c[nH]c3c(-n4ccnn4)ncc(F)c23)CC1` [D-35], with less than 500 nM.

As for `C[C@@H]1CN(c2nn(C)c(=O)cc2-c2ccccc2)CCN1C(=O)C(=O)c1c[nH]c2c(-n3ccnn3)ncc(F)c12` [D-36], the 50% effective concentration (EC50) was more than 500 nM. The same measure for `CN(C)CCCNC(=O)c1cccnc1N1CCN(C(=O)C(=O)c2c[nH]c3c(-n4ccnn4)ncc(F)c23)CC1` [D-37]: more than 500 nM; for `O=C(C(=O)N1CCN(c2ncccc2C(=O)N2CCOCC2)CC1)c1c[nH]c2c(-n3ccnn3)ncc(F)c12` [D-38]: more than 500 nM. Turning to `Cc1cc(NC(=O)c2cccnc2N2CCN(C(=O)C(=O)c3c[nH]c4c(-n5ccnn5)ncc(F)c34)CC2)no1` [D-39], the EC50 is more than 500 nM. The same measure for `CCOC(=O)CCC(=O)c1cccnc1N1CCN(C(=O)C(=O)c2c[nH]c3c(-n4ccnn4)ncc(F)c23)CC1` [D-40]: more than 500 nM. Then `CCOC(=O)CCCC(=O)c1cccnc1N1CCN(C(=O)C(=O)c2c[nH]c3c(-n4ccnn4)ncc(F)c23)CC1` [D-41], with more than 500 nM. Then `CCOC(=O)CCCCC(=O)c1cccnc1N1CCN(C(=O)C(=O)c2c[nH]c3c(-n4ccnn4)ncc(F)c23)CC1` [D-42], with more than 500 nM.

As to `CCOC(=O)CCCCCC(=O)c1cccnc1N1CCN(C(=O)C(=O)c2c[nH]c3c(-n4ccnn4)ncc(F)c23)CC1` [D-43], the EC50 was more than 500 nM.

For the compound `CCOC(=O)CCCCCCC(=O)c1cccnc1N1CCN(C(=O)C(=O)c2c[nH]c3c(-n4ccnn4)ncc(F)c23)CC1` [D-44], the EC50 was more than 500 nM. Regarding `N#CCCC(=O)c1cccnc1N1CCN(C(=O)C(=O)c2c[nH]c3c(-n4ccnn4)ncc(F)c23)CC1` [D-45], the EC50 was more than 500 nM. Regarding `N#CCCCC(=O)c1cccnc1N1CCN(C(=O)C(=O)c2c[nH]c3c(-n4ccnn4)ncc(F)c23)CC1` [D-46], the EC50 was more than 500 nM.

Consider `O=C(C(=O)N1CCN(c2nsnc2N2CCCC2)CC1)c1c[nH]c2c(-n3ccnn3)ncc(F)c12` [D-47], for which the half-maximal effective concentration (EC50) is less than 500 nM.

Turning to `N#Cc1cccc(CC(=O)c2cccnc2N2CCN(C(=O)C(=O)c3c[nH]c4c(-n5ccnn5)ncc(F)c34)CC2)c1` [D-48], the EC50 is less than 500 nM.

With `COc1cnc(-n2cnc(C)n2)c2[nH]cc(C(=O)C(=O)N3CCN(c4nccnc4OC(C)C)CC3)c12` [D-49], the EC50 was less than 500 nM.

In the case of `COc1cnc(-n2cnc(C)n2)c2[nH]cc(C(=O)C(=O)N3CCN(c4nn(C)c(=O)cc4-c4ccccc4)C[C@H]3C)c12` [D-50], the EC50 is more than 500 nM. Then `COc1cnc(-n2cnc(C)n2)c2[nH]cc(C(=O)C(=O)N3CCN(c4ncccc4C(=O)NCCCN(C)C)CC3)c12` [D-51], with more than 500 nM; and `O=C(C(=O)N1CCN(c2nnnn2-c2ccccn2)CC1)c1c[nH]c2c(-n3ccnn3)ncc(F)c12` [E-1, 1-(4-fluoro-7-(1H-1,2,3-triazol-1-yl)-1H-pyrrolo[2,3-c]pyridinyl-3-yl)-2-(4-(1-(pyridin-2-yl)-1H-tetrazol-5-yl)piperazin-1-yl)ethane-1,2-dione], with less than 500 nM; and `COc1cnc(-n2cnc(C)n2)c2[nH]cc(C(=O)C(=O)N3CCN(c4nnnn4-c4ccccn4)CC3)c12` [E-2], with less than 500 nM. Take `O=C(C(=O)N1CCN(c2nnnn2-c2cccnc2)CC1)c1c[nH]c2c(-n3ccnn3)ncc(F)c12` [E-3]: the EC50 was less than 500 nM. The same measure for `O=C(C(=O)N1CCN(c2nnnn2-c2nccs2)CC1)c1c[nH]c2c(-n3ccnn3)ncc(F)c12` [E-4]: less than 500 nM; for `COc1cnc(-n2cnc(C)n2)c2[nH]cc(C(=O)C(=O)N3CCN(c4nnnn4-c4nccs4)CC3)c12` [E-5]: less than 500 nM. Then `O=C(C(=O)N1CCN(c2nnnn2-c2ncco2)CC1)c1c[nH]c2c(-n3ccnn3)ncc(F)c12` [E-6], with less than 500 nM; and `COc1cnc(-n2cnc(C)n2)c2[nH]cc(C(=O)C(=O)N3CCN(c4nnnn4-c4ncco4)CC3)c12` [E-7], with less than 500 nM; and `O=C(C(=O)N1CCN(c2nnnn2C2CCCCC2)CC1)c1c[nH]c2c(-n3ccnn3)ncc(F)c12` [E-8], with less than 500 nM.

For `COc1cccc(-n2nnnc2N2CCN(C(=O)C(=O)c3c[nH]c4c(-n5ccnn5)ncc(F)c34)CC2)c1` [E-9], the EC50 was less than 500 nM. The same measure for `COc1ccc(-n2nnnc2N2CCN(C(=O)C(=O)c3c[nH]c4c(-n5ccnn5)ncc(F)c34)CC2)cc1` [E-10]: more than 500 nM; for `N#Cc1cccc(-n2nnnc2N2CCN(C(=O)C(=O)c3c[nH]c4c(-n5ccnn5)ncc(F)c34)CC2)c1` [E-11]: more than 500 nM. As for `N#Cc1ccc(-n2nnnc2N2CCN(C(=O)C(=O)c3c[nH]c4c(-n5ccnn5)ncc(F)c34)CC2)cc1` [E-12], the EC50 was more than 500 nM. The same measure for `COc1cnc(-n2cnc(C)n2)c2[nH]cc(C(=O)C(=O)N3CCN(c4nnnn4-c4cccc(F)n4)CC3)c12` [E-12a]: less than 500 nM; for `COc1cnc(-n2cnc(C)n2)c2[nH]cc(C(=O)C(=O)N3CCN(c4nnnn4-c4cccc(N)n4)CC3)c12` [E-12b]: less than 500 nM; for `COc1cnc(-n2cnc(C)n2)c2[nH]cc(C(=O)C(=O)N3CCN(c4nnnn4-c4cccc(O)n4)CC3)c12` [E-12c]: less than 500 nM. Then `COc1cnc(-n2cnc(C)n2)c2[nH]cc(C(=O)C(=O)N3CCN(c4nnnn4-c4cccnn4)CC3)c12` [E-12d], with less than 500 nM; and `O=C(C(=O)N1CCN(c2ccnn2-c2ccccn2)CC1)c1c[nH]c2c(-n3ccnn3)ncc(F)c12` [E-14, 1-(4-fluoro-7-(1H-1,2,3-triazol-1-yl)-1H-pyrrolo[2,3-c]pyridinyl-3-yl)-2-(4-(1-(pyridin-2-yl)-1H-pyrazol-5-yl)piperazin-1-yl)ethane-1,2-dione], with less than 500 nM; and `COc1cnc(-n2cnc(C)n2)c2[nH]cc(C(=O)C(=O)N3CCN(c4ccnn4-c4ccccn4)CC3)c12` [E-15, 1-(4-methoxy-7-(3-methyl-1H-1,2,4-triazol-1-yl)-1H-pyrrolo[2,3-c]pyridinyl-3-yl)-2-(4-(1-(pyridin-2-yl)-1H-pyrazol-5-yl)piperazin-1-yl)ethane-1,2-dione], with less than 500 nM.

These data come from patent US7807676B2, “Diketo-Piperazine and Piperidine derivatives as antiviral agents” (priority 2006, dated 2010).
